Entries after “also recorded” stand apart in the source; their conditions may differ.
System: MAdCAM-1 expression in murine colon microvessel endothelial cells
Assay: Western blot assay for TNF-α induced MAdCAM-1 expression in murine colon microvessel endothelial cells
Type: cell-based
Conditions: EC monolayer pre-treated with test agent, then TNF-α 20 ng/ml for 24 hours, western blot densitometry (FIG. 2)
Protocol: A line of murine colon microvessel endothelial cells was developed for use as an in vitro model of colon inflammatory adhesion molecule expression in IBD. Immortomouse mice were used as tissue sources for these studies. Colon segments were sterilely removed and treated with collagenase (0.2%, 45 min) and cultured in d-valine MEM with IFN-g (10 U/ml) with 2% FCS and non-essential amino acids and vitamins. These cells were cultured on gelatin and were maintained at 37 C. for 24 hours prior to exposure to treatment protocols. In treatments, cells cultured on 24 well plates were incubated in either medium, or medium containing antioxidant or antioxidant admixture ± vitamin E TPGS for 24-48 hour prior to the administration of inflammatory cytokine (TNF-α, 20 ng/ml). At 24 hours combined treatments, monolayers were evaluated for MAdCAM-1 by standard western blotting.
EC cells developed as above were cultured in 2% fetal calf serum, with 50 U/ml interferon-gamma, d-valine supplemented MEM, 1% penicillin/streptomycin and 1 % non-essential amino acids using tissue culture were pre-coated with 1 % gelatin. Adhesion molecule expression was measured in these cells by switching cells to medium without interferon, culturing for 48 hours and then pre-treating cells with test agents for 24 hours prior to exposure to TNF-α for an additional 24 hours. MAdCAM-1 expression was measured using standard western blotting procedures described above. One hundred μg of protein was loaded per lane in non-denaturing sample buffer (w/o mercaptoethanol) and electrophoresed, and subsequently transferred to nitrocellulose. After blocking (5% milk, 2 h), blots were incubated in MAdCAM-1 antibody (10 ug/ml) for 12 hours and reacted by enhanced chemiluminescence (ECL). Gels were analyzed by densitometric analysis by scanning x-ray replicas of the exposed blots.
A murine colon microvessel endothelial cell line (EC monolayer) was developed as described above. Cytokine induced MAdCAM-1 expression in these cells was determined via Western Blot assay described above. An initial experiment evaluated the ability of gamma-tocopherol alone or formulated with vitamin E TPGS to block cytokine induction of MAdCAM-1 in this cell line is shown in FIG. 2.

| Compound | effect on cytokine induced MAdCAM-1 expression (in words) | effect on cytokine induced MAdCAM-1 expression (in words) (listed as coenzyme Q10) | effect on cytokine induced MAdCAM-1 expression (in words) (listed as vitamin E TGPS) | decrease in MAdCAM-1 expression |
| --- | --- | --- | --- | --- |
| COC1=C(OC)C(=O)C(C/C=C(\C)CC/C=C(\C)CC/C=C(\C)CC/C=C(\C)CC/C=C(\C)CC/C=C(\C)CC/C=C(\C)CC/C=C(\C)CC/C=C(\C)CCC=C(C)C)=C(C)C1=O [Coenzyme Q10] | less beneficial than alpha-tocopherol therapy | relatively minor effect | – | – |
| Cc1c(C)c2c(c(C)c1O)CC[C@@](C)(CCC[C@H](C)CCC[C@H](C)CCCC(C)C)O2 [alpha-tocopherol] | relatively minor effect; also recorded: significantly less effective than gamma-tocopherol alone | – | – | – |
| vitamin E TPGS | relatively small effect; also recorded: only a slight decrease | – | relatively minor effect | – |
| Cc1c(O)cc2c(c1C)O[C@](C)(CCC[C@H](C)CCC[C@H](C)CCCC(C)C)CC2 [gamma-tocopherol] | significantly decrease | – | – | at least 50% |
